No end group written: not given here.
What was measured:
DR5L ECD [1] = biological target: T1, DR5L ECD (Homo sapiens, UniProt O14763); assay: Fluorescence quenching of AlexaFluor647-DR5L ECD; type: binding
T1 construct: Gp67 (glycoprotein) signal peptide (N); made in house; host or cells: SF21 insect cells (baculovirus, Bac-to-Bac)
Experimental: The pFastBac HTB constructs were recombined into bacmid DNA using the Bac-to-Bac baculovirus expression system according to manufacturer’s protocols (Life Technologies).
Recombinant DR5 and TNFR1 ECD were labeled with AlexaFluor647 NHS Ester (Succinimidyl Ester) (Life Technologies # A37573) in a 3:1 dye:protein molar ratio in 30 mM HEPES pH 7.2, 150 mM NaCl, 1% DMF overnight at 4°C protected from light. The labeled proteins were re-loaded onto a SuperDex200 10/300 GL column to remove the excess dye, yielding labeling efficiencies of 59% and 49% for DR5 ECD and TNFR1 ECD, respectively. […]
To set up reactions, the unlabeled peptide titration (10 μl each) was made from a two-fold dilution series of the highest peptide concentration assayed. […] Samples were incubated for 30 min at RT protected from light before measuring fluorescence.
Samples were then loaded by capillary action onto premium capillaries (Nanotemper Technologies, cat. #MO-K025). Fluorescence was measured on a Monolith NT.115 Instrument (NanoTemper Technologies, Germany) using the capillary scan function at 25°C.
The half-maximum binding constant (K1/2) and Hill coefficient were determined by fitting the data points on Prism 6.0 to the model equation: Y = Bmax*X^h/(K1/2^h + X^h), where Y is the % quenching, X is the concentration of peptide, Bmax is the maximum % quenching, and h is the Hill slope.

DR5L ECD [2] = biological target: T1, DR5L ECD; assay: Size exclusion chromatography of DR5 ECD and peptide complex; type: biochemical; conditions: 25 μM DR5L ECD; 100 μM fluorescein-conjugated peptide; overnight 4°C
Experimental: The specified concentration of protein and peptide were incubated overnight at 4°C. The following day, 200 ul of each sample was loaded onto a SuperDex200 10/300 GL column equilibrated with 30 mM HEPES pH 7.2, 150 mM NaCl at a flow rate of 0.5 ml/min. Fractions were collected in 1 ml aliquots.
For subsequent analysis of each fraction by SDS-PAGE, 1 ml fractions were concentrated to 50 μl using a 3 kDa MW cutoff and loaded onto a gel. The fluorescein-labeled peptide was visualized using the fluorescence detection mode on a Typhoon 9400 Variable Mode Imager (GE Healthcare). Protein was visualized by staining with Coomassie.

T1 sequence (O14763 72-213): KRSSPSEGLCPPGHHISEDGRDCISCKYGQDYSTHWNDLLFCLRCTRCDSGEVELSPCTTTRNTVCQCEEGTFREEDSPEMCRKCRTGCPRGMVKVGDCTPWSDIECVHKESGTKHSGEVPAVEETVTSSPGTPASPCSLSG

| fluorescence quenching of AlexaFluor647-DR5L ECD (DR5L ECD [1]; increasing peptide, 200 nM ECD, N = 3) | Kd (DR5L ECD [1]; AlexaFluor647-DR5L ECD 200 nM, 20 mM HEPES pH 7.2, 100 mM KOAc, 0.1% Tween-20, 30 min RT, read at 25°C, N = 3, ± SD, read-out: K1/2 (half-maximum binding constant, apparent binding affinity)) [µM] | Sequence | co-elution / oligomerization of DR5 ECD by size exclusion (DR5L ECD [2]) |
| --- | --- | --- | --- |
| quenching was not observed |  | FTWREQPEGGRDAISIFHEA [MPZ-ecto^Tyr→Glu] | did not co-migrate with or induce the oligomerization of DR5 ECD |
|  | 109 ± 11 | FTWRYQPEGGRDAISIFHYA [MPZ-ecto] |  |

— paper PMC7041945, “Misfolded proteins bind and activate death receptor 5 to trigger apoptosis during unresolved endoplasmic reticulum stress” (eLife, 2020)
